PMC8752738, “A propolis-derived small molecule ameliorates metabolic syndrome in obese mice by targeting the CREB/CRTC2 transcriptional complex” (Nature Communications, 2022)
“And” between values parts separate entries of the source, which are not always exact repeats. Equal values may be shown once.

How the values were obtained:
tissue mRNA levels = experiment: Quantitative PCR of tissue gene expression in treated mice; format: in vivo, mouse; conditions: for Mean Diff. (Veh. vs. treated; head of the quantity not shown, section just before Figure 7h): Met 200mg/kg or APC-20; for Lxra mRNA level: Figure 7g right, Met 200mg/kg, single animals
Description: Total RNA from cells and tissues was extracted by Trizol (Invitrogen) and reverse-transcribed into cDNA using the prime script RT reagent kit with gDNA eraser (Takara). The mRNA levels were determined using the SYBR-green PCR kit (Takara) with ABIPRISM 7900HT Sequence detector (ABI) according to the manufacturer’s protocol. The quantitative qPCR primers used in this work are listed in Supplementary Table 1. Ribosomal L32 mRNA levels were used as an internal control.

[1] = Cholesterol, TG, NEFA and glycerol in serum and liver; format: in vivo, mouse; set-up: liver NEFA, Mean 2 (group mean) / Plasma VLDL cholesterol in db/db mice (VLDL-C) / Plasma VLDL cholesterol in db/db mice, group mean / TC in liver_CT2KO (total cholesterol in the liver of CRTC2-KO) / TC in liver_WT (total cholesterol in the liver) / TC in liver_WT, mean / TC in liver_WT, Mean Diff. VEH vs. drug / TC in liver_CRTC2KO, mean / TC in liver_CRTC2KO, Mean Diff. VEH vs. drug: unit not given here; conditions: liver, individual animals, Supp.fig.5d
Description: Serum total cholesterol (TC), LDL cholesterol (LDL-C), and HDL cholesterol (HDL-C) levels were detected using commercial kits (Beihua, China), and serum VLDL protein was determined by ELISA (Jiancheng, China).
The plasma TG and NEFA levels were determined using corresponding kits from Beihua (China) and WAKO (Japan), respectively. The TG levels of liver and WAT were tested by TG kit (Applygene, China). The NEFA in the liver and WAT were extracted by chloroform–methanol and then subjected to NEFA assay (WAKO).

CREB-CRTC2 interaction = molecular target: T1, CREB-CRTC2 interaction (Homo sapiens, UniProt P16220); experiment: CREB–CRTC2 mammalian two-hybrid assay (GAL4-Luc reporter); format: cell-based; conditions: for Relative Gal4-LUC activity, single replicates: Figure 1f, CREB-CRTC2 two-hybrid assay, DMSO control about 100; for reporter activity of CREB–CRTC2 two-hybrid assay: HEK293T, isolated compound 25 μM
T1 construct: expressed in transfected cells; host or cells: HEK293T
T1 sequence (P16220 whole entry, the tested form may be a part): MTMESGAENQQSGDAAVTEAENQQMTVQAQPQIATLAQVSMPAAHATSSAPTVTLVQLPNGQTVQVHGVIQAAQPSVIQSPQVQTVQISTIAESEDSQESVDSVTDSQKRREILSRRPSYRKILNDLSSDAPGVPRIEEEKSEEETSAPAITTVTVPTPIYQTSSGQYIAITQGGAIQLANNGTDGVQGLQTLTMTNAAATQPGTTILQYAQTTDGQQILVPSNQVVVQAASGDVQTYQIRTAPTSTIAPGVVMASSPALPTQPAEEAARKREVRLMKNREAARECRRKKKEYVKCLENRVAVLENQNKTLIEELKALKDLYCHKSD

SMILES | Relative Gal4-LUC activity, single replicates (CREB-CRTC2 interaction) | also measured
CN(C)C(=N)NC(=N)N [Met] |  | Mean Diff. (Veh. vs. treated; head of the quantity not shown, section just before Figure 7h) (tissue mRNA levels; CRTC2KO mice): -0.1815; Lxra mRNA level (tissue mRNA levels; Crtc2KO mice): 0.8758 and 0.8882 and 0.7033 and 0.8771 and 1.013; Lxra mRNA level (tissue mRNA levels; WT mice): 1.062 and 1.197 and 0.4513 and 1.258 and 0.814; Mean Diff. (Veh. vs. treated; head of the quantity not shown, section just before Figure 7h) (tissue mRNA levels; WT mice): 0.07313; TC in liver_CT2KO (total cholesterol in the liver of CRTC2-KO) ([1]; CRTC2-KO mice): 69.3199 and 58.5752 and 53.7207 and 41.7006 and 49.9498 and 60.0658; TC in liver_WT (total cholesterol in the liver) ([1]; WT mice): 51.5785 and 54.6034 and 57.0386 and 53.1363 and 64.5936 and 53.9126
O=c1c(O)c(-c2ccc(O)cc2)oc2cc(O)cc(O)c12 [P12, kaempferol] | 73.7017 and 114.823 and 172.832 | 
COc1ccc(-c2oc3cc(O)cc(O)c3c(=O)c2O)cc1 [P13, kaempferide] | 126.299 and 72.1957 and 55.4453 | 
O=c1c(O)c(-c2ccc(O)c(O)c2)oc2cc(O)cc(O)c12 [P14, quercetin] | 130.988 and 153.776 and 136.769 | 
COc1c(O)cc2oc(-c3ccc(O)cc3)c(O)c(=O)c2c1O [P15, 6-methoxykaempferol] | 91.5539 and 105.994 and 143.876 | 
COc1ccc(-c2oc3cc(O)c(OC)c(O)c3c(=O)c2O)cc1 [P16, betuletol] | 48.4823 and 30.8552 and 26.2372 | 
COc1ccc(-c2oc3cc(O)c(O)c(O)c3c(=O)c2OC)cc1 [P17, 5,6,7,-trihydroxy-3,4′-dimethoxyflavone] | 79.2706 and 131.512 and 110.674 | 
O=C1C[C@@H](c2ccccc2)Oc2cc(O)cc(O)c21 [P18, pinocembrin] | 63.0454 and 51.143 and 49.1354 | 
O=C1c2c(O)cc(O)cc2O[C@H](c2ccc(O)cc2)[C@H]1O [P20, aromadendrin] | 126.871 and 59.3858 and 61.7309 | 
COc1ccc(C2Oc3cc(O)cc(O)c3C(=O)C2O)cc1 (stereo not shown) [P21, dihydrokaempferide] | 44.892 and 54.8815 and 50.4357 | 

Further lines, with some results ahead:

Relative Gal4-LUC activity, single replicates (CREB-CRTC2 interaction) | SMILES | also measured
70.496 and 71.1658 and 69.3726 | O=C(O)/C=C/c1ccc(O)cc1 [P1, (E)-p-coumaric acid] | reporter activity of CREB–CRTC2 two-hybrid assay (CREB-CRTC2 interaction): significantly inhibited
61.0304 and 51.9945 and 58.5603 | CC(C)=CCc1cc(/C=C/C(=O)O)ccc1O [P2, drupanin] | reporter activity of CREB–CRTC2 two-hybrid assay (CREB-CRTC2 interaction): significantly inhibited
49.3178 and 78.5049 and 35.7022 | O=C(/C=C/c1ccc(O)cc1)OCc1ccccc1 [P5, (E)-p-coumaric acid benzyl ester] | reporter activity of CREB–CRTC2 two-hybrid assay (CREB-CRTC2 interaction): significantly inhibited
126.493 and 128.204 and 133.801 | CC(C)=CCc1cc(/C=C/C(=O)O)cc(C/C=C(\C)CO)c1O [P7, capillartemisin A] | 
57.5791 and 77.7251 and 73.1602 | O=C(O)/C=C/c1ccc(O)c(O)c1 [P9, (E)-caffeic acid] | 
123.291 and 121.37 and 118.215 | CCOC(=O)/C=C/c1ccc(O)c(O)c1 [P10, (E)-caffeic acid ethyl ester] | 
49.0084 and 29.9945 and 36.8575 | CC1(C)C=Cc2cc(C=CC(=O)O)ccc2O1 [P11, 2,2-dimethylchromene-6-propenoic acid] | 
